ChEMBL document CHEMBL5131478, “3,5-Bis(trifluoromethyl)phenylsulfonamides, a novel pancreatic cancer active lead. Investigation of the terminal aromatic moiety” (Bioorg Med Chem Lett, 2022)

Assays:
HPAC = assay: Growth inhibition of human HPAC cells incubated for 72 hrs by MTT assay; assay type: functional
MIA PaCa-2 = assay: Growth inhibition of human MIA PaCa-2 cells incubated for 72 hrs by MTT assay; assay type: functional
[1] = Growth inhibition of human MCF-10A cells incubated for 72 hrs by MTT assay; assay type: toxicity, cell-based
BE(2)-C = assay: Growth inhibition of human BE2C cells incubated for 72 hrs by MTT assay; assay type: functional
Capan-2 = assay: Growth inhibition of human Capan-2 cells incubated for 72 hrs by MTT assay; assay type: functional
MCF7 = assay: Growth inhibition of human MCF7 cells incubated for 72 hrs by MTT assay; assay type: functional
A2780 = assay: Growth inhibition of human A2780 cells incubated for 72 hrs by MTT assay; assay type: functional
PANC-1 = assay: Growth inhibition of human PANC-1 cells incubated for 72 hrs by MTT assay; assay type: functional
BXPC-3 = assay: Growth inhibition of human BXPC-3 cells incubated for 72 hrs by MTT assay; assay type: functional
HT-29 = assay: Growth inhibition of human HT-29 cells incubated for 72 hrs by MTT assay; assay type: functional
ASPC1 = assay: Growth inhibition of human ASPC1 cells incubated for 72 hrs by MTT assay; assay type: functional

Row | SMILES | GI50 (HPAC) | GI50 (MIA PaCa-2) | GI50 at 72 h [1] | GI50 (BE(2)-C) | GI50 (Capan-2) | GI50 (MCF7) | GI50 (A2780) | GI50 (PANC-1) | GI50 (BXPC-3) | GI50 (HT-29) | GI50 (ASPC1)
1 | O=S(=O)(NCCCNCc1ccccc1)c1cc(C(F)(F)F)cc(C(F)(F)F)c1 | 3200 nM | 11 µM | 13 µM | 12 µM | 14 µM | 3000 nM | 4900 nM | 16 µM | 13000 nM | 15 µM | 13 µM
2 | O=[N+]([O-])c1ccc(S(=O)(=O)NCCCCCCNCc2ccc(Br)cc2)cc1 | – | 9.8 µM | – | – | – | – | – | – | – | – | –
3 | O=S(=O)(NCCCCCCNCc1ccc(Br)cc1)c1ccc2ccsc2c1 | – | 6 µM | – | – | – | – | – | – | – | – | –
4 | COc1cccc(CNCCCNS(=O)(=O)c2cc(C(F)(F)F)cc(C(F)(F)F)c2)c1 | 2400 nM | 3.4 µM | 6.6 µM | 4.5 µM | 6.4 µM | 2400 nM | 1600 nM | 10 µM | 1700 nM | 10 µM | 3.8 µM
5 | CN(CCCNS(=O)(=O)c1cc(C(F)(F)F)cc(C(F)(F)F)c1)Cc1ccccc1 | 30000 nM | 33 µM | 26 µM | 28 µM | 46 µM | 16000 nM | 28000 nM | > 50 µM | 39000 nM | > 50 µM | 51 µM
6 | O=S(=O)(NCCCCCCNCc1ccc(Br)cc1)c1c(Cl)cccc1Cl | – | 14.7 µM | – | – | – | – | – | – | – | – | –
7 | O=S(=O)(NCCCNCc1ccccc1Cl)c1cc(C(F)(F)F)cc(C(F)(F)F)c1 | 10000 nM | 11 µM | 11 µM | 15 µM | 13 µM | 8800 nM | 9300 nM | 15 µM | 11000 nM | 20 µM | 13 µM
8 | O=S(=O)(NCCCCNCc1ccc(Br)cc1)c1cc(C(F)(F)F)cc(C(F)(F)F)c1 | 2000 nM | 2.1 µM | 3.2 µM | 2.2 µM | 1.9 µM | 1500 nM | 2100 nM | 2.2 µM | 1700 nM | 1.6 µM | 2.9 µM
9 | COc1ccc(S(=O)(=O)NCCCCCCNCc2ccc(Br)cc2)cc1 | – | 13 µM | – | – | – | – | – | – | – | – | –
10 | O=S(=O)(NCCCCCCNCc1ccc(Br)cc1)c1cc(Cl)cc(Cl)c1 | – | 12 µM | – | – | – | – | – | – | – | – | –
11 | O=S(=O)(NCCCCCCNCc1ccc(Br)cc1)c1c(Cl)cc(C(F)(F)F)cc1Cl | – | 5.67 µM | – | – | – | – | – | – | – | – | –
12 | O=S(=O)(NCCCCCCNCc1ccc(Br)cc1)c1ccc(Cl)cc1 | – | 5.9 µM | – | – | – | – | – | – | – | – | –
13 | O=S(=O)(NCCCNCc1ccc(Cl)c(C(F)(F)F)c1)c1cc(C(F)(F)F)cc(C(F)(F)F)c1 | 3000 nM | 7.4 µM | 7.9 µM | 8.6 µM | 9.1 µM | 3500 nM | 5900 nM | 10 µM | 7800 nM | 11 µM | 9.6 µM
14 | O=S(=O)(NCCCNCc1ccc(C(F)(F)F)cc1)c1cc(C(F)(F)F)cc(C(F)(F)F)c1 | 2700 nM | 2.5 µM | 3.3 µM | 2.7 µM | 2 µM | 1400 nM | 2800 nM | 3.2 µM | 1700 nM | 2.9 µM | 2 µM
15 | COc1ccccc1CNCCCNS(=O)(=O)c1cc(C(F)(F)F)cc(C(F)(F)F)c1 | 2400 nM | 3.1 µM | 5.5 µM | 3.6 µM | 6 µM | 2600 nM | 1500 nM | 12 µM | 1700 nM | 12 µM | 4.6 µM
16 | O=S(=O)(NCCCCCCNCc1ccc(Br)cc1)c1ccc(C(F)(F)F)cc1 | – | 3.83 µM | – | – | – | – | – | – | – | – | –
17 | O=S(=O)(NCCCCCCNCc1ccc(Br)cc1)c1ccc2c(c1)OCC2 | – | 13 µM | – | – | – | – | – | – | – | – | –

Row | SMILES | GI50 (HPAC) | GI50 (MIA PaCa-2) | GI50 at 72 h [1] | GI50 (BE(2)-C) | GI50 (Capan-2) | GI50 (MCF7) | GI50 (A2780) | GI50 (PANC-1) | GI50 (BXPC-3) | GI50 (HT-29) | GI50 (ASPC1)
18 | Cc1ccc(C)c(S(=O)(=O)NCCCCCCNCc2ccc(Br)cc2)c1 | – | 12 µM | – | – | – | – | – | – | – | – | –
19 | O=S(=O)(NCCCCCCNCc1ccc(Br)cc1)c1ccccc1Cl | – | 13.7 µM | – | – | – | – | – | – | – | – | –
20 | CC(C)c1ccc(S(=O)(=O)NCCCCCCNCc2ccc(Br)cc2)cc1 | – | 5.73 µM | – | – | – | – | – | – | – | – | –
21 | O=[N+]([O-])c1ccccc1S(=O)(=O)NCCCCCCNCc1ccc(Br)cc1 | – | 11.7 µM | – | – | – | – | – | – | – | – | –
22 | CCCCc1ccc(S(=O)(=O)NCCCCCCNCc2ccc(Br)cc2)cc1 | – | 5.7 µM | – | – | – | – | – | – | – | – | –
23 | O=S(=O)(NCCCCCCNCc1ccc(Br)cc1)c1ccccc1F | – | 13.3 µM | – | – | – | – | – | – | – | – | –
24 | O=S(=O)(NCCNCc1cccc2ccccc12)c1cc(C(F)(F)F)cc(C(F)(F)F)c1 | 18000 nM | 26 µM | 22 µM | 19 µM | 21 µM | 18000 nM | 21000 nM | 24 µM | 23000 nM | 16 µM | 22 µM
25 | O=S(=O)(NCCCNCc1cccc(Cl)c1)c1cc(C(F)(F)F)cc(C(F)(F)F)c1 | 2700 nM | 4.4 µM | 7 µM | 6.9 µM | 8 µM | 2600 nM | 2200 nM | 12 µM | 3800 nM | 14 µM | 5.9 µM
26 | O=S(=O)(NCCCNCc1ccc(Cl)cc1)c1cc(C(F)(F)F)cc(C(F)(F)F)c1 | 2800 nM | 2.8 µM | 2.3 µM | 2.9 µM | 2.7 µM | 2400 nM | 1800 nM | 4.9 µM | 1600 nM | 2.8 µM | 3 µM
27 | O=S(=O)(NCCCNCc1ccc(Cl)c(Cl)c1)c1cc(C(F)(F)F)cc(C(F)(F)F)c1 | 2500 nM | 2.7 µM | 3 µM | 2.9 µM | 1.8 µM | 2400 nM | 1500 nM | 5.6 µM | 1400 nM | 4.7 µM | 2.8 µM
28 | O=S(=O)(NCCCCCCNCc1ccc(Br)cc1)c1cccc(C(F)(F)F)c1 | – | 5.97 µM | – | – | – | – | – | – | – | – | –
29 | O=S(=O)(NCCCCCCNCc1ccc(Br)cc1)c1cc(C(F)(F)F)cc(C(F)(F)F)c1 | – | 2.97 µM | – | – | – | – | – | – | – | – | –
30 | COc1ccc(CNCCCNS(=O)(=O)c2cc(C(F)(F)F)cc(C(F)(F)F)c2)cc1 | 3000 nM | 2.5 µM | 3.1 µM | 2.8 µM | 2.4 µM | 2500 nM | 1700 nM | 11 µM | 1300 nM | 2.9 µM | 2.8 µM
31 | O=S(=O)(NCCCNCC1COc2ccccc2O1)c1cc(C(F)(F)F)cc(C(F)(F)F)c1 (centres undefined) | 2700 nM | 2.6 µM | 3.2 µM | 2.8 µM | 2.5 µM | 2500 nM | 1500 nM | 3.4 µM | 1200 nM | 2.2 µM | 2.9 µM
32 | CC(C)(C)c1ccc(S(=O)(=O)NCCCCCCNCc2ccc(Br)cc2)cc1 | – | 2.97 µM | – | – | – | – | – | – | – | – | –
33 | O=S(=O)(NCCCNCc1cccc2ccccc12)c1cc(C(F)(F)F)cc(C(F)(F)F)c1 | 2400 nM | 2.8 µM | 3.2 µM | 2.7 µM | 2.7 µM | 1400 nM | 3100 nM | 2.7 µM | 2700 nM | 2.6 µM | 21 µM
34 | Cc1ccc(S(=O)(=O)NCCCCCCNCc2ccc(Br)cc2)cc1 | – | 12.3 µM | – | – | – | – | – | – | – | – | –
